According to US11111238B2, “Coumarin derivatives, processes for their preparation and uses thereof for the treatment of cancer” (Lead Discovery Center GmbH, priority 2017, dated 2021):

molecular target: mitochondrial RNA-polymerase (POLRMT) (Mus musculus, UniProt Q8BKF1); test: Homogeneous TR-FRET assay for mitochondrial transcription activity; type: biochemical; conditions: homogeneous TR-FRET assay according to Example 4; activity class
Source text: The TR-FRET assay was basically conducted as described in WO2016/193,231A1, especially as described in example 1 (hereby incorporated by reference). With respect to the background of the mitochondrial transcription it is referred to Falkenberg et al. (2002) and Posse et al. (Posse et al., 2015). The method monitors the activity of mitochondrial RNA-polymerase via detection of the formation of its product, a 407 bp long RNA sequence. Detection of the product is facilitated by hybridization of two DNA-oligonucleotide probes to specific and adjacent sequences within the RNA product sequence. Upon annealing of the probes, two fluorophores that are coupled directly to an acceptor nucleotide probe (ATT0647, 5′) or introduced via a coupled streptavidin interacting with a biotinylated donor nucleotide probe on the other side (Europium cryptate, 3′) are brought into sufficient proximity to serve as a fluorescence-donor-acceptor pair as generally described in Walters and Namchuk (2003). Thus, a FRET signal at 665 nm is generated upon excitation at 340 nm.
Briefly, the protocol described here was applied for screening and activity determination in a low-volume 384-well microtiter plate with non-binding surface. For high-throughput application in the 1536-well microtiter plate format, volumes of the reagent mixes were adjusted, maintaining the volumetric ratio. Proteins POLRMT (NM_172551.3), TFAM (NM_009360.4) and TFB2 M (NM_008249.4) were diluted from their stocks to working concentrations of 150 nM, 1.8 μM and 330 nM respectively, in a dilution buffer containing 100 mM Tris-HCl pH 8.0, 200 mM NaCl, 10% (v/v) glycerole, 2 mM glutathione (GSH), 0.5 mM EDTA and 0.1 mg/mL BSA. Protein dilutions and template DNA, comprising a pUC18 plasmid encoding the mitochondrial light strand promoter, restriction linearized proximal to the promoter 3′-end (pUC-LSP), were mixed at the twofold final assay-concentration in a reaction buffer, containing 10 mM Tris-HCl pH 7.5, 10 mM MgCl2, 40 mM NaCl, 2 mM GSH, 0.01% (w/v) Tween-20 and 0.1 mg/mL BSA.
5 μL of this mix were dispensed, depending on the chosen microtiter plate format, using multi-channel pipettes or a Multidrop® dispenser (Thermo Fisher Scientific, Waltham Mass.) into the wells of a microtiter plate and incubated at room temperature (RT) for 10 min. Chemical compounds under scrutiny in the assay were applied using contact-free acoustic droplet-dispensing (Echo520® Labcyte Inc., Sunnyvale Calif.) from 10 mM compound stocks in 100% DMSO, to a final concentration of 10 μM or in serial dilution series of the required concentration range. Equal amounts of DMSO without any compound were added to positive control samples, followed by an incubation step at RT for 10 min.
The enzymatic reaction was started by the addition of 5 μL of a mix of […] in reaction buffer to a final concentration of 500 μM each. No nucleotide mix was added to negative control samples. The content of the wells was mixed using a VarioTeleshaker™ (Thermo Fisher Scientific, Waltham Mass.) at 1,500 rpm for 45 sec after which the microtiter plate was centrifuged at 500×g for 1 min. The samples were incubated for 2 h at RT with humidity control to avoid evaporation. The detection reagents were prepared in a buffer that was composed, such that the enzymatic reaction was terminated due to chelating of Mg-ions and increased ionic strength, containing 50 mM Tris-HCl pH 7.5, 700 mM NaCl, 20 mM EDTA, and 0.01% (w/v) Tween-20. Importantly Eu-cryptate-coupled streptavidin had to be pre-incubated with a 100-fold molar excess of a random sequence oligonucleotide for 10 min at RT in the dark to block unspecific binding of single stranded RNA to the protein. Subsequently, the blocked streptavidin(—Eu) was mixed with the DNA-probes on ice and kept away from light until use. […]

Chain of mitochondrial RNA-polymerase (POLRMT) (Q8BKF1 42-1207): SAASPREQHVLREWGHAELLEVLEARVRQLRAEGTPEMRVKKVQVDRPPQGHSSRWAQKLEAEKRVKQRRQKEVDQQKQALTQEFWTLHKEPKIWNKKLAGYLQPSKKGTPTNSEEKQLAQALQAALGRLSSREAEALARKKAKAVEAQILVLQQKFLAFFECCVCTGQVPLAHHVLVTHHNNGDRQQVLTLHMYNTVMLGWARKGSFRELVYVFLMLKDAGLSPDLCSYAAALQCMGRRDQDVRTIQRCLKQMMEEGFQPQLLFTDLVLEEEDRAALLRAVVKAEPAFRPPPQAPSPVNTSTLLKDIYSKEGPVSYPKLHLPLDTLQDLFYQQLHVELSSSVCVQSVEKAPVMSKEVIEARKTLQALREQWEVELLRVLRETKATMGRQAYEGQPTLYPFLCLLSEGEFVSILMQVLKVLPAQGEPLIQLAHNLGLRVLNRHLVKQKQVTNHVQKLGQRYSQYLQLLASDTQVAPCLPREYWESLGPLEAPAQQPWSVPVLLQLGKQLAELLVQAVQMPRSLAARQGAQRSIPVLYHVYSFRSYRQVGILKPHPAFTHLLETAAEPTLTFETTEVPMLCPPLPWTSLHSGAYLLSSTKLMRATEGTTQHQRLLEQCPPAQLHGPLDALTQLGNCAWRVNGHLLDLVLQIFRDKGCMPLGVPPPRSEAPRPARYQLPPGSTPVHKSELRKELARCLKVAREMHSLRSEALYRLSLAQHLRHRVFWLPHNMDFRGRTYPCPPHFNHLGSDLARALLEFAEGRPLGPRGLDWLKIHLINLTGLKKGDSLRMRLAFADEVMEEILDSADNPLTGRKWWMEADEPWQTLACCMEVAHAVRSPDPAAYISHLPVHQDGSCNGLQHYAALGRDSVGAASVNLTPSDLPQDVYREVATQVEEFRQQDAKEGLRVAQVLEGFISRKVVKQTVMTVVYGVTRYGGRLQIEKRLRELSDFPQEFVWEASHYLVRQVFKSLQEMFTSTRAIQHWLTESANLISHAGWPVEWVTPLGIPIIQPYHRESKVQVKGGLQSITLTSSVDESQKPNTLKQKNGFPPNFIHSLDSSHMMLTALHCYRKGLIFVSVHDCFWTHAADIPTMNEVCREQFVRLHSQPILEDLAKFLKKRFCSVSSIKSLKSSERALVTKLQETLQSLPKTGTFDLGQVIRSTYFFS

Compound	IC50 [nM]
COC(=O)C1CN(C(=O)[C@@H](C)Oc2ccc3c(-c4ccc(F)cc4Cl)cc(=O)oc3c2)CCN1C (mixture of isomers) [Compound 137, methyl 1-methyl-4-[rac-(2R)-2-[4-(2-chloro-4-fluoro-phenyl)-2-oxo-chromen-7-yl]oxypropanoyl]piperazine-2-carboxylate]	100 to 1000
CC(Oc1ccc2c(-c3ccccc3Cl)cc(=O)oc2n1)C(=O)N1CCC[C@H](C(=O)OC(C)(C)C)C1 (mixture of isomers) [Compound 171, tert-butyl rac-(3S)-1-[2-[4-(2-chlorophenyl)-2-oxo-pyrano[2,3-b]pyridin-7-yl]oxypropanoyl]piperidine-3-carboxylate]	100 to 1000
Cc1ccccc1-c1cc(=O)oc2cc(OC(C)C(=O)N3CCC[C@H](C(=O)O)C3)ccc12 (stereo partly drawn) [Compound 3, (3S)-1-[2-[4-(o-tolyl)-2-oxo-chromen-7-yl]oxypropanoyl]piperidine-3-carboxylic acid]	< 20
Cc1ccccc1-c1cc(=O)oc2cc(OC(C)C(=O)Nc3ccccn3)ccc12 (centres unmarked) [Compound 4, 2-[4-(o-tolyl)-2-oxo-chromen-7-yl]oxy-N-(2-pyridyl)propanamide]	< 20
Cc1ccccc1-c1cc(=O)oc2cc(OC(C)C(=O)N3CCCC3)ccc12 (centres unmarked) [Compound 5, 7-(1-methyl-2-oxo-2-pyrrolidin-1-yl-ethoxy)-4-(o-tolyl)chromen-2-one]	< 20
COC(=O)C1CCCN(C(=O)C(C)Oc2ccc3c(-c4ccccc4C)cc(=O)oc3c2)C1 (centres unmarked) [Compound 6, methyl 1-[2-[4-(o-tolyl)-2-oxo-chromen-7-yl]oxypropanoyl]piperidine-3-carboxylate]	< 20
COC(=O)C1CCCN(C(=O)C(C)Oc2ccc3c(-c4ccccc4Cl)cc(=O)oc3c2)C1 (centres unmarked) [Compound 7, methyl 1-[2-[4-(2-chlorophenyl)-2-oxo-chromen-7-yl]oxypropanoyl]piperidine-3-carboxylate]	< 20
Cc1ccccc1-c1cc(=O)oc2cc(OC(C)C(=O)N3CCCC(S(=O)(=O)O)C3)ccc12 (centres unmarked) [Compound 10, 1-[2-[4-(o-tolyl)-2-oxo-chromen-7-yl]oxypropanoyl]piperidine-3-sulfonic acid]	< 20
CC(Oc1ccc2c(-c3ccccc3Cl)cc(=O)oc2c1)C(=O)N1CCCC(S(=O)(=O)O)C1 (centres unmarked) [Compound 11, 1-[2-[4-(2-chlorophenyl)-2-oxo-chromen-7-yl]oxypropanoyl]piperidine-3-sulfonic acid]	< 20
CC(Oc1ccc2c(-c3ccccc3Cl)cc(=O)oc2c1)C(=O)N1CCCC1 (centres unmarked) [Compound 13, 4-(2-chlorophenyl)-7-(1-methyl-2-oxo-2-pyrrolidin-1-yl-ethoxy)chromen-2-one]	< 20
CCOC(=O)[C@H]1CCCN(C(=O)C(C)Oc2ccc3c(-c4ccccc4Cl)cc(=O)oc3c2)C1 (stereo partly drawn) [Compound 16, ethyl (3S)-1-[2-[4-(2-chlorophenyl)-2-oxo-chromen-7-yl]oxypropanoyl]piperidine-3-carboxylate]	< 20
CCOC(=O)[C@H]1CCCN(C(=O)C(C)Oc2ccc3c(-c4ccccc4C)cc(=O)oc3c2)C1 (stereo partly drawn) [Compound 17, ethyl (3S)-1-[2-[4-(o-tolyl)-2-oxo-chromen-7-yl]oxypropanoyl]piperidine-3-carboxylate]	< 20
Cc1ccccc1-c1cc(=O)oc2cc(OC(C)C(=O)Nc3ccc(CCO)cc3)ccc12 (centres unmarked) [Compound 19, N-[4-(2-hydroxyethyl)phenyl]-2-[4-(o-tolyl)-2-oxo-chromen-7-yl]oxy-propanamide]	< 20
CNS(=O)(=O)C1CCCN(C(=O)C(C)Oc2ccc3c(-c4ccccc4Cl)cc(=O)oc3c2)C1 (centres unmarked) [Compound 20, 1-[2-[4-(2-chlorophenyl)-2-oxo-chromen-7-yl]oxypropanoyl]-N-methyl-piperidine-3-sulfonamide]	< 20
Cc1ccccc1-c1cc(=O)oc2cc(OC(C)C(=O)N3CC[C@H](C(=O)O)C3)ccc12 (stereo partly drawn) [Compound 22, (3S)-1-[2-[4-(o-tolyl)-2-oxo-chromen-7-yl]oxypropanoyl]pyrrolidine-3-carboxylic acid]	< 20
C[C@@H](Oc1ccc2c(-c3ccccc3Cl)cc(=O)oc2c1)C(=O)N1CCC[C@H](C#N)C1 [Compound 28, (3S)-1-[(2R)-2-[4-(2-chlorophenyl)-2-oxo-chromen-7-yl]oxypropanoyl]piperidine-3-carbonitrile]	< 20
C[C@@H](Oc1ccc2c(-c3ccccc3Cl)cc(=O)oc2c1)C(=O)N1CC[C@H](C(=O)O)C1 [Compound 29, (3S)-1-[2-[4-(2-chlorophenyl)-2-oxo-chromen-7-yl]oxypropanoyl]pyrrolidine-3-carboxylic acid]	< 20
Cc1ccccc1-c1cc(=O)oc2cc(O[C@H](C)C(=O)N3CCCCC3)ccc12 [Compound 30, 7-[(1R)-1-methyl-2-oxo-2-(1-piperidyl)ethoxy]-4-(o-tolyl)chromen-2-one]	< 20
CC(Oc1ccc2c(-c3ccccc3Cl)cc(=O)oc2c1)C(=O)Nc1ccccn1 (centres unmarked) [Compound 31, 2-[4-(2-chlorophenyl)-2-oxo-chromen-7-yl]oxy-N-(2-pyridyl)propanamide]	< 20
Cc1ccccc1-c1cc(=O)oc2cc(O[C@H](C)C(=O)N3CCC[C@H](C#N)C3)ccc12 [Compound 32, (3S)-1-[(2R)-2-[4-(o-tolyl)-2-oxo-chromen-7-yl]oxypropanoyl]piperidine-3-carbonitrile]	< 20
C[C@@H](Oc1ccc2c(-c3ccccc3Cl)cc(=O)oc2c1)C(=O)N1CCCCC1 [Compound 34, 4-(2-chlorophenyl)-7-[(1R)-1-methyl-2-oxo-2-(1-piperidyl)ethoxy]chromen-2-one]	< 20
CC(Oc1ccc2c(-c3ccccc3Cl)cc(=O)oc2c1)C(=O)Nc1ccc(CCO)cc1 (centres unmarked) [Compound 35, 2-[4-(2-chlorophenyl)-2-oxo-chromen-7-yl]oxy-N-[4-(2-hydroxyethyl)phenyl]propanamide]	< 20
CC(Oc1ccc2c(-c3ccccc3Cl)cc(=O)oc2c1)C(=O)N1CCCC(c2nn[nH]n2)C1 (centres unmarked) [Compound 39, 4-(2-chlorophenyl)-7-[1-methyl-2-oxo-2-[3-(2H-tetrazol-5-yl)-1-piperidyl]ethoxy]chromen-2-one]	< 20
CCOC(=O)C(C)Oc1ccc2c(-c3ccccc3Cl)cc(=O)oc2c1 (centres unmarked) [Compound 40, ethyl 2-[4-(2-chlorophenyl)-2-oxo-chromen-7-yl]oxypropanoate]	< 20
Cc1ccccc1-c1cc(=O)oc2cc(OC(C)C(=O)N3CCCC(C#N)C3)ccc12 (centres unmarked) [Compound 41, 1-[2-[4-(o-tolyl)-2-oxo-chromen-7-yl]oxypropanoyl]piperidine-3-carbonitrile]	< 20
Cc1ccccc1-c1cc(=O)oc2cc(OC(C)C(=O)N3CCCC(C)(C(=O)O)C3)ccc12 (centres unmarked) [Compound 43, 3-methyl-1-[2-[4-(o-tolyl)-2-oxo-chromen-7-yl]oxypropanoyl]piperidine-3-carboxylic acid]	< 20
Cc1ccccc1-c1cc(=O)oc2cc(O[C@H](C)C(=O)N(C)C)ccc12 [Compound 44, (2R)-N,N-dimethyl-2-[4-(o-tolyl)-2-oxo-chromen-7-yl]oxy-propanamide]	< 20
C[C@@H](Oc1ccc2c(-c3ccccc3Cl)cc(=O)oc2c1)C(=O)N(C)C [Compound 45, (2R)-2-[4-(2-chlorophenyl)-2-oxo-chromen-7-yl]oxy-N,N-dimethyl-propanamide]	< 20
CC(Oc1ccc2c(-c3ccccc3Cl)cc(=O)oc2c1)C(=O)N1CCC[C@@H](C(=O)O)C1 (stereo partly drawn) [Compound 46, (3R)-1-[2-[4-(2-chlorophenyl)-2-oxo-chromen-7-yl]oxypropanoyl]piperidine-3-carboxylic acid]	< 20
